Test results taken from ChEMBL document CHEMBL1152560, “Substituted 2-arylbenzothiazoles as kinase inhibitors: hit-to-lead optimization” (Bioorg Med Chem, 2009).

Tests used:
[1] = target: Insulin-like growth factor 1 receptor (Homo sapiens) (UniProt P08069); assay: Residual activity of IGF1R at 1 uM by microplate scintillation counting
[2] = target: Rho-associated protein kinase 1 (Homo sapiens) (UniProt Q13464); assay: Residual activity of ROCK1 at 0.1 uM by microplate scintillation counting
[3] = target: T1, Serine/threonine-protein kinase D1 (Homo sapiens) (UniProt Q15139); assay: Residual activity of PKCmu at 1 uM by microplate scintillation counting
T1 sequence (whole entry): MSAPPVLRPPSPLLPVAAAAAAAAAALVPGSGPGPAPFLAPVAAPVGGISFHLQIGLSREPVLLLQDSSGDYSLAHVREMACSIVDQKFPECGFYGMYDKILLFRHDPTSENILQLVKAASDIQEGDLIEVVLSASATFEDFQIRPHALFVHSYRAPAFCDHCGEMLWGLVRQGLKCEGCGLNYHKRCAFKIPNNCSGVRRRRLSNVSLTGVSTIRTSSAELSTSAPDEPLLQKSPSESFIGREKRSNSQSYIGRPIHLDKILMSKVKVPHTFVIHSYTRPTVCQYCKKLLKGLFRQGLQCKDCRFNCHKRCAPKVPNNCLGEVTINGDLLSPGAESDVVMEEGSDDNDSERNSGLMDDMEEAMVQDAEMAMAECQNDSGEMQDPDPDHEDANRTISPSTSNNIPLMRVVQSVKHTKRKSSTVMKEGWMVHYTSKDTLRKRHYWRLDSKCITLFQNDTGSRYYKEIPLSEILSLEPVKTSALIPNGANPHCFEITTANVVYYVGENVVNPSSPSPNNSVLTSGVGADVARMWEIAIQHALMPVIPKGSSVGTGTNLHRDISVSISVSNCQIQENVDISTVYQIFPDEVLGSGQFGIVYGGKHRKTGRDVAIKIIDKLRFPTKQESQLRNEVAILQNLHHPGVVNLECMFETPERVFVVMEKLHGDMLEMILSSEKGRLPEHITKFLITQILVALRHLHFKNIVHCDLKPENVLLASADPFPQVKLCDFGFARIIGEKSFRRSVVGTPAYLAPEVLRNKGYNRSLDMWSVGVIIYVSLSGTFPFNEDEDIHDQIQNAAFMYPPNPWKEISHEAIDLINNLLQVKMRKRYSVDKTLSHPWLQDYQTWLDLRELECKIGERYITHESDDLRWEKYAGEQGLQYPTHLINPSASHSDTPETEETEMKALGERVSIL

[4] = target: Casein kinase I isoform alpha (Homo sapiens) (UniProt P48729); assay: Residual activity of CK1alpha1 at 1 uM by microplate scintillation counting
[5] = target: Serine/threonine-protein kinase PLK3 (Homo sapiens) (UniProt Q9H4B4); assay: Residual activity of PLK3 at 10 uM by microplate scintillation counting
[6] = target: Casein kinase I isoform delta (Homo sapiens) (UniProt P48730); assay: Residual activity of CK1delta at 1 uM by microplate scintillation counting
Aurora kinase B = Aurora kinase B (Homo sapiens, UniProt Q96GD4); assay: Residual activity of Aurora-B at 0.1 uM by microplate scintillation counting
[7] = target: Serine/threonine-protein kinase PAK 4 (Homo sapiens) (UniProt O96013); assay: Residual activity of PAK4 at 10 uM by microplate scintillation counting
[8] = target: G protein-coupled receptor kinase 4 (Homo sapiens) (UniProt P32298); assay: Residual activity of GRK4 at 0.1 uM by microplate scintillation counting
[9] = target: Serine/threonine-protein kinase SIK2 (Homo sapiens) (UniProt Q9H0K1); assay: Residual activity of SNF1LK2 at 10 uM by microplate scintillation counting
[10] = target: BDNF/NT-3 growth factors receptor (Homo sapiens) (UniProt Q16620); assay: Residual activity of TRK-B at 0.1 uM by microplate scintillation counting
[11] = target: T2, Tyrosine-protein kinase JAK3 (Homo sapiens) (UniProt P52333); assay: Residual activity of JAK3 at 0.1 uM by microplate scintillation counting
T2 sequence (whole entry): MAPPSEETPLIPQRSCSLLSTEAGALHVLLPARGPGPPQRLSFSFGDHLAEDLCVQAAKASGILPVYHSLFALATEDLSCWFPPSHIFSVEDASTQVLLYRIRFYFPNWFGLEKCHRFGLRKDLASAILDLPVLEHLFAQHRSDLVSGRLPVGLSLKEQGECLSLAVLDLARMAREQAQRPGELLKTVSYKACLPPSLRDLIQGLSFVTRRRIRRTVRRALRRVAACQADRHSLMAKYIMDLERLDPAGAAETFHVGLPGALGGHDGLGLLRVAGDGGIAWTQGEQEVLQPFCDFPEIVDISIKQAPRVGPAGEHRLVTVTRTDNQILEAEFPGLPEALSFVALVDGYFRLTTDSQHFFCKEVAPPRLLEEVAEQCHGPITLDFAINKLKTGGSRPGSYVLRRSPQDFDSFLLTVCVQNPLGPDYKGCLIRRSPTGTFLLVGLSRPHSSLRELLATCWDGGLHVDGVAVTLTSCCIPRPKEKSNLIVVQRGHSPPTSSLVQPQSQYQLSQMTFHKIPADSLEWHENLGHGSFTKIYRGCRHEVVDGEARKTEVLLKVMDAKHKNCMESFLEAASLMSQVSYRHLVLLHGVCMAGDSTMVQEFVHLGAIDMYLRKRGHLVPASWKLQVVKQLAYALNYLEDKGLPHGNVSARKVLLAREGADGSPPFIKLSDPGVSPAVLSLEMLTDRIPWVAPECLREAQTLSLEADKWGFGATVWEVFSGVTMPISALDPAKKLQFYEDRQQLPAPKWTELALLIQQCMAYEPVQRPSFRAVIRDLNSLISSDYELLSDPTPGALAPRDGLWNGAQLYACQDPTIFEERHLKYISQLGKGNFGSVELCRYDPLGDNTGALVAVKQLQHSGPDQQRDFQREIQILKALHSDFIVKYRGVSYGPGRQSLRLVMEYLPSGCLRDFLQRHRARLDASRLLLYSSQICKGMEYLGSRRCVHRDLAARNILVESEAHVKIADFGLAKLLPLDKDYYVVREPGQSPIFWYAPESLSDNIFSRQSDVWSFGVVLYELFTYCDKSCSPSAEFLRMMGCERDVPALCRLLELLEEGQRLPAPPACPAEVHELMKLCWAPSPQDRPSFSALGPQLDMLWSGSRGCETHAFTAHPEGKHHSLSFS

[12] = target: Serine/threonine-protein kinase WNK2 (Homo sapiens) (UniProt Q9Y3S1); assay: Residual activity of WNK2 at 0.1 uM by microplate scintillation counting

Rho-associated protein kinase 1 (Homo sapiens), sequence (Q13464 2-1354 limits assumed): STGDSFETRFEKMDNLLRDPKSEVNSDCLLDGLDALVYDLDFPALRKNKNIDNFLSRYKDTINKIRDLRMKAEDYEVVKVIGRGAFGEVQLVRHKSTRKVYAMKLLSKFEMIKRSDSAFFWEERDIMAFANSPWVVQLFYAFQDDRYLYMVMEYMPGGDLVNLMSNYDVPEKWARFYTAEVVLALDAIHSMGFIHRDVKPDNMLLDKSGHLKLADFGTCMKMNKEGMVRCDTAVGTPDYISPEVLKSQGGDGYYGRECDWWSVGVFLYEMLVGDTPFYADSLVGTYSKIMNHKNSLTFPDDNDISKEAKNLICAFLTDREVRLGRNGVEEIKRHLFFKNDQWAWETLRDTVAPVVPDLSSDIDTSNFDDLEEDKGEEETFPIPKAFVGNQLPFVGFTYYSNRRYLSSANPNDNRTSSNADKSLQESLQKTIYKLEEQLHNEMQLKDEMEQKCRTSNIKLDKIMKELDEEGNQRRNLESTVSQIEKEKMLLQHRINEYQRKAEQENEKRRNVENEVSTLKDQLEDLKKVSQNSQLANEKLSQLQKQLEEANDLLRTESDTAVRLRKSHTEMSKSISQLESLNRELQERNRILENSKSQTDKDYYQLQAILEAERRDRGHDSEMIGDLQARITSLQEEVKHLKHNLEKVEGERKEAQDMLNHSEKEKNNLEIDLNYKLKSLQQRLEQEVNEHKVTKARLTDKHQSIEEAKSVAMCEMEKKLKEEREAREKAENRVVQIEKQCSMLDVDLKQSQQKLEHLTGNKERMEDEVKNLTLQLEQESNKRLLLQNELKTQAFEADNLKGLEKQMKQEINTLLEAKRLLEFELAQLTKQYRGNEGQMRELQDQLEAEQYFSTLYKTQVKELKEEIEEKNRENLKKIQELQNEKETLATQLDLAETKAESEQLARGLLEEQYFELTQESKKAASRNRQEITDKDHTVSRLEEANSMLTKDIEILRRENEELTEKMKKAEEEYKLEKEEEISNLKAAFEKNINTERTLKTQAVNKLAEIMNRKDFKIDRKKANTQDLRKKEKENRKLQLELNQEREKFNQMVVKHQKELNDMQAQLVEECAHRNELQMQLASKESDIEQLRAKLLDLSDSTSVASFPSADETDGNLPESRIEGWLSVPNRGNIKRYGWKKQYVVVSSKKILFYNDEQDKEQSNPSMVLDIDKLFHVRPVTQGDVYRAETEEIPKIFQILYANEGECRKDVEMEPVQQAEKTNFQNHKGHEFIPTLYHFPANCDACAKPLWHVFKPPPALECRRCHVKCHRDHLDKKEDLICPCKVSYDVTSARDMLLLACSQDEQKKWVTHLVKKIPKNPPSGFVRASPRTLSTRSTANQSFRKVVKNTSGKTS
BDNF/NT-3 growth factors receptor (Homo sapiens), sequence (Q16620 32-822 limits assumed): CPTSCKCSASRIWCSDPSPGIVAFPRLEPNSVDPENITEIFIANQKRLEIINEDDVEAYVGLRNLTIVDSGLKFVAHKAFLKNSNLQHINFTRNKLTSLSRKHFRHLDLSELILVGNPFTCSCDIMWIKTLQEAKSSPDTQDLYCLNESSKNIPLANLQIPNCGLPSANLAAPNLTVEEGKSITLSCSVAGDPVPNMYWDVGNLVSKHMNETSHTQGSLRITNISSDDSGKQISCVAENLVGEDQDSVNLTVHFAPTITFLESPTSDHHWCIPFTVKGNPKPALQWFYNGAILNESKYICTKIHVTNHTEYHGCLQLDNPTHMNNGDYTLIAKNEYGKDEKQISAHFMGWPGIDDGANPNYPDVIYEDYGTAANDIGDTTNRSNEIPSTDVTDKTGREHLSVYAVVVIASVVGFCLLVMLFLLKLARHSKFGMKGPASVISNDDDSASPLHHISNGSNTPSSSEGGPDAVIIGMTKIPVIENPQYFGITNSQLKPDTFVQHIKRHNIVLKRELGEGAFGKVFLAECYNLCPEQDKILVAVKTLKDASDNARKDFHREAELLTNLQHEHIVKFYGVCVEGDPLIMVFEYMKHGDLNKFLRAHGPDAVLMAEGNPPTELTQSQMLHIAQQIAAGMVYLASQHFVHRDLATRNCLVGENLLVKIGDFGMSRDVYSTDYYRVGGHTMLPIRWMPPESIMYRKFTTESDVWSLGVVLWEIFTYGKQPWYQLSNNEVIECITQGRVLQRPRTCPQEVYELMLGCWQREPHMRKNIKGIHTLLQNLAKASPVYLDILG
Serine/threonine-protein kinase PLK3 (Homo sapiens), sequence (Q9H4B4 whole entry, looked up, canonical isoform): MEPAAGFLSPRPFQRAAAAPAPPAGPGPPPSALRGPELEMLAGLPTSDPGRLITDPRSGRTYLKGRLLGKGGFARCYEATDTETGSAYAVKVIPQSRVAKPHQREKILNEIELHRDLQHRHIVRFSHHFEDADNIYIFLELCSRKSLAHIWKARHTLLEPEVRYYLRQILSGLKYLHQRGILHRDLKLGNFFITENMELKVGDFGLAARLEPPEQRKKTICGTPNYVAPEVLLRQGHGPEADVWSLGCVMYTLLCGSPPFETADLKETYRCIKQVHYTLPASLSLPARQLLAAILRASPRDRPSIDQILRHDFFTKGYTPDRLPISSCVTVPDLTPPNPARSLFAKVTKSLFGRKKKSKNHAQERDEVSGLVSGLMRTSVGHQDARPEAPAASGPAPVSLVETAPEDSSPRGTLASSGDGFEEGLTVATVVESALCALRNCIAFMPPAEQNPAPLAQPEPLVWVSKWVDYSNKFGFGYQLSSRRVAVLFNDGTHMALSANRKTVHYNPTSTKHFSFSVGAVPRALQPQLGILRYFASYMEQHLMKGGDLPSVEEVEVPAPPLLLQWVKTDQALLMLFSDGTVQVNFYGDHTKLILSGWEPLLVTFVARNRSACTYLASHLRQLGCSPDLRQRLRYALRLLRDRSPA
Aurora kinase B, sequence (Q96GD4 whole entry): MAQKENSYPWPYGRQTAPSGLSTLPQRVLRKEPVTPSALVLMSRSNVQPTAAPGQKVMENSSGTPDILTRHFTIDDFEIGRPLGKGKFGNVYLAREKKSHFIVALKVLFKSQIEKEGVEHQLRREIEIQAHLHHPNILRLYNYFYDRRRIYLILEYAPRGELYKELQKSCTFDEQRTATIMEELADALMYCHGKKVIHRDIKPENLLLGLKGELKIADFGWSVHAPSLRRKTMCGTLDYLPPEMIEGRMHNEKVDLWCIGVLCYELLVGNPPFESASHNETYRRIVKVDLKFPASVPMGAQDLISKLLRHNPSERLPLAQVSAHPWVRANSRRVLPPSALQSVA
Casein kinase I isoform delta (Homo sapiens), sequence (P48730 whole entry, looked up, canonical isoform): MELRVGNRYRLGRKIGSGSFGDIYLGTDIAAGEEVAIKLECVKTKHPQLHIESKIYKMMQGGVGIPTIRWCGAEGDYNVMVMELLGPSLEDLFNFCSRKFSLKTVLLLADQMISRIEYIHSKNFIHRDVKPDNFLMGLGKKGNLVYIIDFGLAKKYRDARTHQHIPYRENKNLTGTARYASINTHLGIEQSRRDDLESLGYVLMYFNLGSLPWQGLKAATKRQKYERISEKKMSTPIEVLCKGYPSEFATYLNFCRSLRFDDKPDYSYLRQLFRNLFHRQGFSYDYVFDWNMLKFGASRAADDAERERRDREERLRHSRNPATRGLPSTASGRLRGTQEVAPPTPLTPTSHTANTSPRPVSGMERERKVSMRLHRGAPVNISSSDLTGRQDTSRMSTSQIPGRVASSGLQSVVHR
Insulin-like growth factor 1 receptor (Homo sapiens), sequence (P08069 31-736 limits assumed): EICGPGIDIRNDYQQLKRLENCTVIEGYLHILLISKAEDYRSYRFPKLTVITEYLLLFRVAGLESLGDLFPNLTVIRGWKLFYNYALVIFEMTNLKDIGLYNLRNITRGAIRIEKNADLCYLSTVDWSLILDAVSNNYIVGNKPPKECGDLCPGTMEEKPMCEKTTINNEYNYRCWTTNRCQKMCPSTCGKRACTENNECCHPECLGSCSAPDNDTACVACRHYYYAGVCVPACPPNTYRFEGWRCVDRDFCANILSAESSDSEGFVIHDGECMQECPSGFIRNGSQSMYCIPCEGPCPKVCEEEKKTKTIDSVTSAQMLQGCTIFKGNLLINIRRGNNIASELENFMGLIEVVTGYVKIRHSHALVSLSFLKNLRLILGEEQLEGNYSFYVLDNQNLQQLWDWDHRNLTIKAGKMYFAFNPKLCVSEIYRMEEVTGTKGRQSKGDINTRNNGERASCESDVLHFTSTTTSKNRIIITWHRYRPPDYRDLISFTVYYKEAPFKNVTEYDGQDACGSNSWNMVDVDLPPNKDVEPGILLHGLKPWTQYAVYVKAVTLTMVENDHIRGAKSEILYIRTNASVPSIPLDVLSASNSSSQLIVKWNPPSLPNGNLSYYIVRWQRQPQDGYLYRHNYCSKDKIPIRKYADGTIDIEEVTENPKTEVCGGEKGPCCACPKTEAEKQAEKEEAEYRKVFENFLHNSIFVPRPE
Insulin-like growth factor 1 receptor (Homo sapiens), sequence (P08069 741-1367 limits assumed): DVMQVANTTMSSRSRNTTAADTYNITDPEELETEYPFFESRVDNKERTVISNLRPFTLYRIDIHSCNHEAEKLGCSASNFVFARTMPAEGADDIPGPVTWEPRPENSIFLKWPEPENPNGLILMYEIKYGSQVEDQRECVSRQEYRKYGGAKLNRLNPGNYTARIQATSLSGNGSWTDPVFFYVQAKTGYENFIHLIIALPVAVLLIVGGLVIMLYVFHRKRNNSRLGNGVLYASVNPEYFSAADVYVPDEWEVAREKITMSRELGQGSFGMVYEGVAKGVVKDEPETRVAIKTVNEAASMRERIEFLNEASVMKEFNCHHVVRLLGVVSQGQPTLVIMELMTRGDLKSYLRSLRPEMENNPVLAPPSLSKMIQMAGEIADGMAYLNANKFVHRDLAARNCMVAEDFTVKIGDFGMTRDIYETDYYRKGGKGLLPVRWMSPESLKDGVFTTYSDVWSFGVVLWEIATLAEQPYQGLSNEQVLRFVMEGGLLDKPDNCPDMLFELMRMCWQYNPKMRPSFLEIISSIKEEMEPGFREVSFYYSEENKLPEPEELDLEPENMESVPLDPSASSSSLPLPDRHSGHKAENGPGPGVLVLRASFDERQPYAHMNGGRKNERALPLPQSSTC

SMILES | residual activity [1] [%] | residual activity [2] [%] | residual activity [3] [%] | residual activity [4] [%] | residual activity [5] [%] | residual activity [6] [%] | residual activity (Aurora kinase B) [%] | residual activity [7] [%] | residual activity [8] [%] | residual activity [9] [%] | residual activity [10] [%] | residual activity [11] [%] | residual activity [12] [%]
COc1cc2c(Oc3ccc(-c4nc5ccccc5s4)cc3F)ncnc2cc1OCCCN1CCN(C)CC1 | 115 | 101 | 89 | 103 | 257 | 102 | 45 | 50 | 88 | 241 | 94 | 90 | 87
COc1cc2c(Oc3ccc(-c4nc5ccccc5s4)cc3)ncnc2cc1OCCCN1CCCC1 | 100 | 96 | 100 | 102 | 223 | 100 | 48 | 91 | 90 | 107 | 97 | 98 | 81
COc1cc2c(Oc3ccc(-c4nc5ccccc5s4)cc3)ncnc2cc1OCCCN1CCN(C)CC1 | 100 | 98 | 89 | 99 | 2 | 96 | 40 | 55 | 84 | 141 | 82 | 95 | 74
